Experimental data from paper PMC2888690 (Journal of combinatorial chemistry, 2009).
“And” between values parts separate entries of the source, which are not always exact repeats. Equal entries are not always repeated. Where two headings read alike, the source gives them in different places.

Assays:
[1] = system: Bacillus anthracis Sterne; experiment: microbe, parasite or virus in culture; format: cell-based
[2] = system: Bacillus anthracis Sterne; experiment: microbe, parasite or virus in culture; format: cell-based; remark: listed apart in the source

Row | SMILES | MIC ([1]; 5 h, read-out: LB MIC) | MIC ([1]; read-out: LB B.a. MIC) | MIC ([2]; 5 h, read-out: MH MIC) | MIC ([2]; read-out: MH B.a. MIC)
1 | O=C(Nc1ccc(NS(=O)(=O)c2ccc(Cl)c(Cl)c2)cc1)Nc1ccc([N+](=O)[O-])cc1 [5{1}, 3,4-Dichloro-(N-(4-(((4-nitrophenyl)amino)carbonyl)aminophenyl))benzenesulfonamide] | 2.8 µM and 1.3 µg/mL | 2.8 µM and 1.3 µg/mL | 3.8 µM and 1.8 µg/mL | 3.8 µM and 1.8 µg/mL
2 | Nc1ccc(S(=O)(=O)Nc2ccc(NC(=O)Nc3ccccc3[N+](=O)[O-])cc2)cc1 [compound 9, 4-Amino-(N-(4-(((2-nitrophenyl)amino)carbonyl)aminophenyl))benzenesulfonamide] | 120 µM and 53 µg/mL |  |  | 
3 | O=C(Nc1ccc(NS(=O)(=O)c2ccc(Cl)c(Cl)c2)cc1)Nc1ccccc1[N+](=O)[O-] [5{3}, 3,4-Dichloro-(N-(4-(((2-nitrophenyl)amino)carbonyl)aminophenyl))benzenesulfonamide] | > 240 µM and > 115 µg/mL | > 240 µM and > 115 µg/mL |  | 
4 | O=C(Nc1ccc(NS(=O)(=O)c2ccc(Cl)c(Cl)c2)cc1)Nc1cccc([N+](=O)[O-])c1 [5{2}, 3,4-Dichloro-(N-(4-(((3-nitrophenyl)amino)carbonyl)aminophenyl))benzenesulfonamide] | > 240 µM and > 115 µg/mL | > 240 µM and > 115 µg/mL |  | 
